One data set concerns Male Wistar rats. Briefly: MK-801-Induced Psychosis Model. The note with it: MK-801 0.3 mg/kg i.p. Format: in vivo, rat. The text has this: The non-competitive NMDA receptor antagonist MK-801 induces stereotypies and hyperactivity in rodents (1) by interacting with the NMDA receptor-associated ion channel. Phencyclidine, which also interferes with the NMDA receptor, produces psychotic effects in humans similar in many respects to schizophrenia. […] Therefore the MK-801-induced activity and stereotypies in rats may represent an appropriate animal model to test the potential efficacy of antipsychotic drugs.
Male Wistar rats (Iffa Crédo, St Germain/l'Arbresle, France), weight 250-300 g were housed 2 per cage on a 12 h/12 h light dark cycle (lights on at 7.00 a.m.) at a room temperature of 21±2° C. for a minimum of 5 days before testing. All animals had access to commercial food and tap water ad libitum.
On the day of the experiment, rats were treated with either reference drug vehicle, the reference drugs haloperidol or clozapine the test compound vehicle or test compounds. After administration, the rats were returned to their home cages for 15 minutes. […] The remaining rats treated with placebo received a second injection of vehicle. The standard injection volume was 2.0 ml/kg. After 10 minutes in the home cages, rats were transferred to the test box (Plexiglas, 29×12×12 cm), 5 minutes before the assessment for accomodation. The test box was cleaned with 70% ethanol before each assessment. Stereotypies, defined as wall-contacts with the snout, and locomotion, defined as turn-rounds of 180°, were assessed during 5 minute periods.

The target of data set [1] is T1, guinea pig sigma receptor (Cavia porcellus, UniProt Q60492).
T1 construct: having guinea pig as a receptor source; from tissue; host or cells: guinea pig
Put plainly: Guinea pig sigma receptor assay. The data set is classed as binding. The method, then: (§1) The ability of test compounds to displace sigma ligands in vitro was determined by the methods of de Costa et al. (FEBS Lett. 251:53 (1989)) and De Haven-Hudkine et al. (Eur. J. Pharmacol. 227:372 (1992)) having guinea pig as a receptor source. Whereas, the methods of Gamapatju et al. (J. Pharm.&Exp. 289:251 (1999)) were utilized for human sigma receptors.

Another data set deals with human sigma receptor (Homo sapiens, UniProt Q99720). Put plainly: Human sigma receptor assay. The data set is classed as binding. The method, then:
as §1

Another data set concerns the target CYP2C19 (Homo sapiens, UniProt P33261). Put plainly: In Vitro Metabolism (isozymes of P450) CYP2C19.
A further data set can be described thus: Permeability. The following applies: not told; read-out: Permeability PupperX10^6 cm/s. Format: in vitro ADME.
Another data set deals with T2, CYP1A2 (Homo sapiens, UniProt P05177).
T2 sequence (P05177 1-516): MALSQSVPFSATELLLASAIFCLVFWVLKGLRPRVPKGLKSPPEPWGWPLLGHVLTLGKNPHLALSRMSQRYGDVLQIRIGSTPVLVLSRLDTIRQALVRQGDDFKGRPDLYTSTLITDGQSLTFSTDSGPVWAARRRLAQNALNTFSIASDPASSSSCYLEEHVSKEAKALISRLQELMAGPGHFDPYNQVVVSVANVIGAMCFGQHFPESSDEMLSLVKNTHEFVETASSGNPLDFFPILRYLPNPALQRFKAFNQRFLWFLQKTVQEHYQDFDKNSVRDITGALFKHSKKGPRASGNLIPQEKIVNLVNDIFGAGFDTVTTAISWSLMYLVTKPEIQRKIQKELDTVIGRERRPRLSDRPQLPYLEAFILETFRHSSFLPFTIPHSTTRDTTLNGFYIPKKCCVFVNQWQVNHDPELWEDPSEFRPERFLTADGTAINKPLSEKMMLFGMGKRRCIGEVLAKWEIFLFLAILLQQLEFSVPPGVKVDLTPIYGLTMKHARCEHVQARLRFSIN
Put plainly: In Vitro Metabolism (isozymes of P450) CYP1A2.

A further data set deals with Cell Viability. Briefly: Safety Assessment: Cell Viability.
Another data set relates to Membrane Integrity. Put plainly: Safety Assessment: Membrane Integrity.
The subject of another data set is Caspase-3. Put plainly: Safety Assessment: Caspase-3 Induction.
The next data set concerns the target CYP3A4 (Homo sapiens, UniProt P08684). Put plainly: In Vitro Metabolism (isozymes of P450) CYP3A4.
The subject of another data set is RedOx State. Briefly: Safety Assessment: RedOx State.
For a further data set, the system named is GSH Level. Put plainly: Safety Assessment: GSH Level.
The target of a further data set is CYP2C9 (Homo sapiens, UniProt P11712). Put plainly: In Vitro Metabolism (isozymes of P450) CYP2C9.
In a further data set the test system is DNA Synthesis. Briefly: Safety Assessment: DNA Synthesis.
The target of another data set is CYP2D6 (Homo sapiens, UniProt P10635). Put plainly: In Vitro Metabolism (isozymes of P450) CYP2D6.
The next data set deals with Protein Synthesis. Briefly: Safety Assessment: Protein Synthesis.
In data set [2] the target is T3, sigma-1 receptor (guinea pig brain) (Cavia porcellus, UniProt Q60492).
T3 construct: from tissue; host or cells: guinea pig brain
Put plainly: Antagonism of haloperidol binding to guinea pig sigma-1 receptors. The note with it: sigma-1, guinea pig brain; for % Inhibition: test concentration not given.

The target in another data set is sigma-1 receptors (Cavia porcellus, UniProt Q60492). Briefly: Behavioral receptor assays: sigma-1. The following applies: guinea pig. Format: binding. The method, then:
(§2) Various compounds of the present invention (19, 31, and 32) were evaluated in a group of assays based on mammalian cellular receptors associated with behavior. The group consisted of assays base on human dopamine D1, D2L, D3, D4.2, D4.4, D4.7, and D5 receptors, and the transporter; human serotonin 5-HT1A, 5-HT1B, 5-HT1D, 5-HT2A, 5-HT2B, 5-HT2C, 5-HT3, 5-HT5A, 5-HT6, and 5-HT7 receptors, and the human serotonin transporter; guinea pig 5-HT4 and sigma-1 receptors; rat sigma-2 and muscarinic receptors; and human NK1-3 receptors. The following table presents a subset of the results of these assays.

The next data set concerns the target human serotonin 5-HT2A (Homo sapiens, UniProt P28223). Put plainly: Behavioral receptor assays: 5-HT2A. Format: binding. The following applies: read-out: Receptors (IC50) 5-HT2A. The method, then:
as §2

For data set [3], the system named is [3H]haloperidol binding sites in guinea pig brain. The following applies: cited from earlier work.
The mark [4] stands for this setting: read-out: IC50 Against Guinea Pig Sigma Receptor.
The mark [5] stands for this setting: read-out: IC50 Against Human Sigma Receptor.
Setting [6] is: rat, 0.5, 1.0 and 5.0 mg/kg i.p.

We go through 14 compounds from patent US6476019B1, “Spirocyclic ligands for sigma receptors, and libraries and methods of use thereof” (Sepracor Inc., priority 1999, dated 2002).

A word on the IC50: it is the point on the concentration scale where inhibition reaches its midpoint. As usually defined, the fraction unbound is the share of the substance not bound to proteins or other matrix. A high value points to much free substance. The solubility is the concentration that dissolves in the medium under given conditions. The term % Inhibition denotes the change of the read-out against control, counted positive when it falls. A high value points to a response far below the control.

Each structure is given as a SMILES string. ≈ marks a conversion by molar mass, not a printed value. Where two headings read alike, the source gives them in different places.

T3 sequence (Q60492 whole entry): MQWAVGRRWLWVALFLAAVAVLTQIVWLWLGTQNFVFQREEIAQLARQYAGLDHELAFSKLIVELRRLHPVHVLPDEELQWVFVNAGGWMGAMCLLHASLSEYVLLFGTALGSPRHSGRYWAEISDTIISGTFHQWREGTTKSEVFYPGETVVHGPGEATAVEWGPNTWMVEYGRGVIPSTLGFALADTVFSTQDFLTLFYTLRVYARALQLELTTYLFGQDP
T1 sequence (Q60492 whole entry): as above
Sequence of human sigma receptor (Q99720 whole entry): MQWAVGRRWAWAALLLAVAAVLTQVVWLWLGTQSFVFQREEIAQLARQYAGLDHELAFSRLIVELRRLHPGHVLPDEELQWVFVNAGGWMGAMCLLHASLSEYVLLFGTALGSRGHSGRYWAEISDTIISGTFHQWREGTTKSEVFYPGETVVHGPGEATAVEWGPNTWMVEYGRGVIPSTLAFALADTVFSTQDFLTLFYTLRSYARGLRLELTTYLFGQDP
Sequence of CYP2C9 (P11712 whole entry): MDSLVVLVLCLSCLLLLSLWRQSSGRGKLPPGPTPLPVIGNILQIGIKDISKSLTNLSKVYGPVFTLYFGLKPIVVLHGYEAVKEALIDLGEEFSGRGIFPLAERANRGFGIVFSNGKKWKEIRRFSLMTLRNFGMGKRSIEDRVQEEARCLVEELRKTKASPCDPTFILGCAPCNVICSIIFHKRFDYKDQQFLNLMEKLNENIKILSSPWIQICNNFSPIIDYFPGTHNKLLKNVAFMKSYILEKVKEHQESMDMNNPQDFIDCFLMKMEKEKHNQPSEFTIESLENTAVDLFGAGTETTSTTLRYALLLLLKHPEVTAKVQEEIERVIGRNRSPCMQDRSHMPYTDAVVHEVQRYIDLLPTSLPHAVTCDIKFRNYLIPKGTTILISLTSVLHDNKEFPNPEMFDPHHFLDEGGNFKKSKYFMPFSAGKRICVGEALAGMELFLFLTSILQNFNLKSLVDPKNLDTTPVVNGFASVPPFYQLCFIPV
Sequence of CYP3A4 (P08684 whole entry): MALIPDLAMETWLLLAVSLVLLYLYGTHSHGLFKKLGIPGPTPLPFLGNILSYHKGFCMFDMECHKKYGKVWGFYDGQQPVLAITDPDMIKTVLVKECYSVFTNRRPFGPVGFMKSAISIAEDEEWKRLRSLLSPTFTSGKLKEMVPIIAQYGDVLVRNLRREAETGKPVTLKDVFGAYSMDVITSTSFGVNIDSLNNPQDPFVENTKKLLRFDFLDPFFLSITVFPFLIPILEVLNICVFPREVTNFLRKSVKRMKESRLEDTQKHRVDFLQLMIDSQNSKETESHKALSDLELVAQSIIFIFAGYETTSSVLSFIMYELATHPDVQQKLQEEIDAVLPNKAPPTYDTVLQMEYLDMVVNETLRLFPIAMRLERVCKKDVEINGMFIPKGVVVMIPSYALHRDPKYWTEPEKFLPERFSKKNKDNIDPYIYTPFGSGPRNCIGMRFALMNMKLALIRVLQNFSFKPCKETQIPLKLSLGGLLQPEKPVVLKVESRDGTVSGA
Sequence of CYP2D6 (P10635 whole entry): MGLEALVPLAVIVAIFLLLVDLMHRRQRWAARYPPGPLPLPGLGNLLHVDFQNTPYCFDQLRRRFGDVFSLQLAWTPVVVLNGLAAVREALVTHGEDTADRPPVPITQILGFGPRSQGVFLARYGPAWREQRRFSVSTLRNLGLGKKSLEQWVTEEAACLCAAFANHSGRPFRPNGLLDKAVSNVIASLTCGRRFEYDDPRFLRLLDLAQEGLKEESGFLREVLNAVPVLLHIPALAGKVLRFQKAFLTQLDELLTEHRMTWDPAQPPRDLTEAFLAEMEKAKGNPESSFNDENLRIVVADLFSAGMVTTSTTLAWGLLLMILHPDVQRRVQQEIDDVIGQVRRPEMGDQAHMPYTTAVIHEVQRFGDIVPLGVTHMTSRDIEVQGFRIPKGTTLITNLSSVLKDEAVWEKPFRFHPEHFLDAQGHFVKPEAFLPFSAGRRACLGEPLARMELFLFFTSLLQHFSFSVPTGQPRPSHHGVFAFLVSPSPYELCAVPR
Sequence of CYP2C19 (P33261 whole entry): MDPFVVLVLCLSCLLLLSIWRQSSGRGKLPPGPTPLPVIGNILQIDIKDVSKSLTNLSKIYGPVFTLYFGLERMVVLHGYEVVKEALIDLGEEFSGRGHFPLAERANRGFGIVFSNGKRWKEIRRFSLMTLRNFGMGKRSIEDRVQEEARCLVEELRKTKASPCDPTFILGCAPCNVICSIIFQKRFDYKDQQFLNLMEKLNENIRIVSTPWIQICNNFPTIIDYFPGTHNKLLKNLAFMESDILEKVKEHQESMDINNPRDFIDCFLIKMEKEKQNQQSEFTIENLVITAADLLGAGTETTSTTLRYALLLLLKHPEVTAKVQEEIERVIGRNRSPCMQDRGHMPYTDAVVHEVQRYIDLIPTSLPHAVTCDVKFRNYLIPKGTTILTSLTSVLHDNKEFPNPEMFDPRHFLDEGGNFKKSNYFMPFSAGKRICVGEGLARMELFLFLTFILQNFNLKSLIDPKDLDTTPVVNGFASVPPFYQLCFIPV
Sequence of human serotonin 5-HT2A (P28223 whole entry): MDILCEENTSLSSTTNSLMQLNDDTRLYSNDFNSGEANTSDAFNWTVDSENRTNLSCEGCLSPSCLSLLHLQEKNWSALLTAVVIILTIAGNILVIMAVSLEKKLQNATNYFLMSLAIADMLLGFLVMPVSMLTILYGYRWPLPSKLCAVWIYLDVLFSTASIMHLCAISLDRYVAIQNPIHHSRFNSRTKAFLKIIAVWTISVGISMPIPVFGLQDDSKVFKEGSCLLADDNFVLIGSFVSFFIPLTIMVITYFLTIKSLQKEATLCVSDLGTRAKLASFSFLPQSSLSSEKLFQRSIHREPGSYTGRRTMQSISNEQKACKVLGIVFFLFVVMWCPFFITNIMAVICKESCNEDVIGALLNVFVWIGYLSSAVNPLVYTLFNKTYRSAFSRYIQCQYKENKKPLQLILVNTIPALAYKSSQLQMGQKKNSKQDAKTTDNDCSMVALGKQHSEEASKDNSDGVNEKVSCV
Sequence of sigma-1 receptors (Q60492 whole entry): as the sequence (Q60492 whole entry) above

Take `O=C(CCCN1CCC(O)(c2ccc(Cl)cc2)CC1)c1ccc(F)cc1` [haloperidol, reference compound]: in the data set on Male Wistar rats (rat, 0.25 mg/kg i.p.), the MK-801-induced locomotion result was “significant reduction” and the MK-801-induced stereotypies result is reported as “significant reduction”.

As to `CC(c1ccc(F)cc1)N1CCC2(CCC(=O)c3ccccc3N2)CC1` (centres unmarked) [Compound 46, 1′-(1-Methyl-4-fluorobenzyl)-3,4-dihydrospiro[5H-1-benzazepine-2(1H)-4′-piperidin]-5-one], the concentration for half-maximal inhibition (IC50) was less than 0.01 µM in data set [1] (setting [4]) and less than 0.1 µM on human sigma receptor (setting [5]).

With `O[C@@H]1CCC2(CCN(Cc3ccc(F)cc3)CC2)Nc2ccccc21` [Compound 50], the CYP2C19 at CYP2C19 came to 19 % inhibition. The Papp in the data set “Permeability” came to 25.8 ×10⁻⁶ cm/s. In addition, the fraction unbound in the data set “Protein Binding” was 0.38. The half-maximal inhibitory concentration (IC50) in [1] (setting [4]) is less than 0.1 µM; on human sigma receptor (setting [5]), less than 1 µM. For the same compound, the CYP1A2 on CYP1A2 came to 14 % inhibition. In addition, the “Log D7.5” value in “Log D7.5” was 1.62. In the data set with Cell Viability, the “Cell Viability” value is less than 10 % inhibition. Besides, the “Membrane Integrity” value in the data set with Membrane Integrity is less than 10 % inhibition. The “Caspase-3 Induction % Induction” value with Caspase-3 is on record as less than 10 % Induction. On CYP3A4, this compound had a CYP3A4 of 19 % inhibition. Moreover, in the data set “Metabolic Stability”, the “Metabolic Stability (% parent remaining)” value came out at 87 % parent remaining. In addition, in the data set on RedOx State, the “RedOx State” value is on record as 12 % inhibition. Moreover, the MK-801-induced locomotion result in the data set on Male Wistar rats (setting [6]) is given as “caused a reduction”. Further, in the data set on Male Wistar rats (setting [6]), the MK-801-induced stereotypies result is “caused a reduction”. Moreover, the “GSH Level (% Control)” value in the data set with GSH Level was less than 10 % Control. Further, at CYP2C9, the CYP2C9 was determined as 19 % inhibition. In the data set with DNA Synthesis, the “DNA Synthesis” value is listed as less than 10 % inhibition. On CYP2D6, the CYP2D6 came out at 31 % inhibition. Moreover, in the data set on Protein Synthesis, the “Protein Synthesis” value is less than 10 % inhibition. In the data set “Solubility”, the concentration in solution (solubility) was 205 µM (≈ 69.8 µg/mL).

As to `Fc1ccc(CN2CCC3(CCCc4ccccc4N3)CC2)cc1` [Compound 43], the half-maximal inhibitory concentration (IC50) on human sigma receptor (setting [5]) was less than 1 µM.

Regarding `NC1CCC2(CCN(Cc3ccc(F)cc3)CC2)Nc2ccccc21` (racemic) [Compound 36, 1′-(4-fluorobenzyl)-3,4-dihydrospiro[5H-1-benzazepine-2(1H)-4′-piperidin]-5-amine], on human sigma receptor (setting [5]), the half-inhibitory concentration (IC50) is less than 0.1 µM.

As for `C=C1c2ccccc2NC12CCN(Cc1ccc(F)cc1)CC2` [Compound 53, 1-Fluorobenzyl-spiro[(3-methylene)-indole-2,4′-piperidine]], the results for the half-inhibitory concentration (IC50) (in data set [1]; at human sigma receptor) were less than 0.1 µM and greater than 1 µM, respectively.

`O[C@H]1CCC2(CCN(Cc3ccc(F)cc3)CC2)Nc2ccccc21` [Compound 49]: at CYP2C19, the CYP2C19 is recorded as 19 % inhibition. In the data set “Permeability”, the Papp was found to be 27.5 ×10⁻⁶ cm/s. In “Protein Binding”, this compound had a fraction unbound of 0.37. Also, the IC50 in data set [1] (setting [4]) is less than 0.1 µM. The compound further yielded a CYP1A2 on CYP1A2 of 13 % inhibition. The “Log D7.5” value in the data set “Log D7.5” came out at 1.59. Moreover, the “Cell Viability” value in the data set on Cell Viability is less than 10 % inhibition. For the same compound, the “Membrane Integrity” value in the data set on Membrane Integrity was less than 10 % inhibition. Also, the “Caspase-3 Induction % Induction” value in the data set on Caspase-3 was less than 10 % Induction. The compound also showed a CYP3A4 on CYP3A4 of 17 % inhibition. Also, the “Metabolic Stability (% parent remaining)” value in the data set “Metabolic Stability” was found to be 69 % parent remaining. Further, the “RedOx State” value with RedOx State is reported as 15 % inhibition. Also, in the data set with Male Wistar rats (setting [6]), the MK-801-induced locomotion entry is recorded as “did not reduce” and the MK-801-induced stereotypies result was “did not reduce”. Moreover, the “GSH Level (% Control)” value in the data set on GSH Level is on record as less than 10 % Control. The compound further registered a CYP2C9 at CYP2C9 of 18 % inhibition. Moreover, the concentration for half-maximal inhibition (IC50) on human sigma receptor (setting [5]) was less than 0.1 µM. In addition, in the data set with DNA Synthesis, the “DNA Synthesis” value is on record as less than 10 % inhibition. For the same compound, the CYP2D6 on CYP2D6 turned out to be 44 % inhibition. In the data set on Protein Synthesis, the “Protein Synthesis” value is listed as less than 10 % inhibition. Also, the solubility in the data set “Solubility” worked out at 181 µM (≈ 61.6 µg/mL).

Consider `O=C1CCC2(CCN(CCc3ccccc3)CC2)Nc2ccccc21` [Compound 19], for which the “% Inhibition” value in data set [2] is recorded as greater than 50%. For the same compound, the 50% inhibitory concentration (IC50) on sigma-1 receptors is less than 0.1 µM; at human serotonin 5-HT2A it was less than 1 µM.

Consider `CC(=O)NC1CCC2(CCN(Cc3ccc(F)cc3)CC2)Nc2ccccc21` (racemic) [Compound 39], for which the values for the IC50 (in [1] (setting [4]); on human sigma receptor (setting [5])) were less than 0.01 µM and less than 1 µM, respectively.

Take `O=C1CCC2(CCN(C(=O)N3CCOCC3)CC2)Nc2ccccc21` [Compound 13, 1′-(4-morpholinecarbonyl)-3,4-dihydrospiro[5H-1-benzazepine-2(1H)-4′-piperidin]-5-one]: in [2], the 50% inhibitory concentration (IC50) is greater than 1 µM and the “% Inhibition” value was less than 50%.

On to `O=C1CCC2(CCN(Cc3ncc[nH]3)CC2)Nc2ccccc21` [Compound 30, 1′-(2-methyl-imidazole)-3,4-dihydrospiro[5H-1-benzazepine-2(1H)-4′-piperidin]-5-one], for which, in [2], the half-maximal inhibitory concentration (IC50) was less than 1 µM and the “% Inhibition” value is recorded as greater than 50%.

Take `O=C1CCC2(CCN(CC(O)c3ccccc3)CC2)Nc2ccccc21` (centres unmarked) [Compound 45, 1′-(2-hydroxy-phenethyl)-3,4-dihydrospiro[5H-1-benzazepine-2(1H)-4′-piperidin]-5-one]: the 50% inhibitory concentration (IC50) in data set [1] (setting [4]) is less than 0.01 µM; at human sigma receptor (setting [5]), less than 0.1 µM.

For the compound `O=C1C=CC2(CCN(Cc3ccc(F)cc3)CC2)Nc2ccccc21` [Compound 34, 1′-(4-Fluorobenzyl)-spiro[5-1-benzazepine-2(1H)-4′-piperidin]-5-one], the 50% inhibitory concentration (IC50) in data set [1] (setting [4]) was less than 0.1 µM. For the same compound, in data set [2], the half-maximal inhibitory concentration (IC50) is less than 0.1 µM and the “% Inhibition” value was greater than 50%.

Consider `CC(C)=CCN1CCC2(C)c3cc(O)ccc3CC1C2C` (single isomer, unassigned; (+)) [(+)-pentazocine], for which the “potency in displacing [3H]haloperidol relative to spiperone” value in data set [3] is “about 10 times”.
